From ChEMBL document CHEMBL4000244, “Probing A-form DNA: A fluorescent aminosugar probe and dual recognition by anthraquinone-neomycin conjugates” (Bioorg Med Chem, 2017)

Legend:
[1] = Binding affinity to 5'-CCCGGCCG-3' DNA hairpin assessed as change in fluorescence intensity at 1 uM after 45 mins by fluorescence quenching analysis relative to control
[2] = Binding affinity to 5'-CGCCCCCG-3' DNA hairpin assessed as change in fluorescence intensity at 1 uM after 45 mins by fluorescence quenching analysis relative to control
[3] = Binding affinity to 5'-GGCGCCCC-3' DNA hairpin assessed as change in fluorescence intensity at 1 uM after 45 mins by fluorescence quenching analysis relative to control
[4] = Binding affinity to 5'-CCGGCCGC-3' DNA hairpin assessed as change in fluorescence intensity at 1 uM after 45 mins by fluorescence quenching analysis relative to control
[5] = Binding affinity to 5'-GGCCGCGC-3' DNA hairpin assessed as change in fluorescence intensity at 1 uM after 45 mins by fluorescence quenching analysis relative to control
[6] = Binding affinity to 5'-CGGGGCCG-3' DNA hairpin assessed as change in fluorescence intensity at 1 uM after 45 mins by fluorescence quenching analysis relative to control
[7] = Binding affinity to 5'-GGGGGGCG-3' DNA hairpin assessed as change in fluorescence intensity at 1 uM after 45 mins by fluorescence quenching analysis relative to control
[8] = Binding affinity to 5'-GCGCGGCG-3' DNA hairpin assessed as change in fluorescence intensity at 1 uM after 45 mins by fluorescence quenching analysis relative to control
[9] = Binding affinity to 5'-GGCCGGGG-3' DNA hairpin assessed as change in fluorescence intensity at 1 uM after 45 mins by fluorescence quenching analysis relative to control
[10] = Binding affinity to 5'-GGCCCGCG-3' DNA hairpin assessed as change in fluorescence intensity at 1 uM after 45 mins by fluorescence quenching analysis relative to control
[11] = Binding affinity to 5'-GCCGCCGC-3' DNA hairpin assessed as change in fluorescence intensity at 1 uM after 45 mins by fluorescence quenching analysis relative to control
[12] = Binding affinity to 5'-GCGGCCGG-3' DNA hairpin assessed as change in fluorescence intensity at 1 uM after 45 mins by fluorescence quenching analysis relative to control
[13] = Binding affinity to 5'-GCCGGCCC-3' DNA hairpin assessed as change in fluorescence intensity at 1 uM after 45 mins by fluorescence quenching analysis relative to control
[14] = Binding affinity to 5'-GGGGCGCG-3' DNA hairpin assessed as change in fluorescence intensity at 1 uM after 45 mins by fluorescence quenching analysis relative to control
[15] = Binding affinity to 5'-CCCGGGGC-3' DNA hairpin assessed as change in fluorescence intensity at 1 uM after 45 mins by fluorescence quenching analysis relative to control
[16] = Binding affinity to 5'-CCGCCCCG-3' DNA hairpin assessed as change in fluorescence intensity at 1 uM after 45 mins by fluorescence quenching analysis relative to control
[17] = Binding affinity to 5'-GCCGGCGC-3' DNA hairpin assessed as change in fluorescence intensity at 1 uM after 45 mins by fluorescence quenching analysis relative to control
[18] = Binding affinity to 5'-GGCGCCCG-3' DNA hairpin assessed as change in fluorescence intensity at 1 uM after 45 mins by fluorescence quenching analysis relative to control
[19] = Binding affinity to 5'-GCCGGGCG-3' DNA hairpin assessed as change in fluorescence intensity at 1 uM after 45 mins by fluorescence quenching analysis relative to control
[20] = Binding affinity to 5'-GCCGGGGC-3' DNA hairpin assessed as change in fluorescence intensity at 1 uM after 45 mins by fluorescence quenching analysis relative to control
[21] = Binding affinity to 5'-CGGCGCCC-3' DNA hairpin assessed as change in fluorescence intensity at 1 uM after 45 mins by fluorescence quenching analysis relative to control
[22] = Binding affinity to 5'-CCCGCGCG-3' DNA hairpin assessed as change in fluorescence intensity at 1 uM after 45 mins by fluorescence quenching analysis relative to control
[23] = Binding affinity to 5'-CCGCCGGC-3' DNA hairpin assessed as change in fluorescence intensity at 1 uM after 45 mins by fluorescence quenching analysis relative to control
[24] = Binding affinity to 5'-GGCGGGCG-3' DNA hairpin assessed as change in fluorescence intensity at 1 uM after 45 mins by fluorescence quenching analysis relative to control
[25] = Binding affinity to 5'-CCGCGCCC-3' DNA hairpin assessed as change in fluorescence intensity at 1 uM after 45 mins by fluorescence quenching analysis relative to control
[26] = Binding affinity to 5'-GCCCCCCG-3' DNA hairpin assessed as change in fluorescence intensity at 1 uM after 45 mins by fluorescence quenching analysis relative to control
[27] = Binding affinity to 5'-CCCCCCGG-3' DNA hairpin assessed as change in fluorescence intensity at 1 uM after 45 mins by fluorescence quenching analysis relative to control
[28] = Binding affinity to 5'-CCGGGGGC-3' DNA hairpin assessed as change in fluorescence intensity at 1 uM after 45 mins by fluorescence quenching analysis relative to control
[29] = Binding affinity to 5'-CGGGCCGC-3' DNA hairpin assessed as change in fluorescence intensity at 1 uM after 45 mins by fluorescence quenching analysis relative to control
[30] = Binding affinity to 5'-CGCCCGGG-3' DNA hairpin assessed as change in fluorescence intensity at 1 uM after 45 mins by fluorescence quenching analysis relative to control
[31] = Binding affinity to 5'-CGGCCGCC-3' DNA hairpin assessed as change in fluorescence intensity at 1 uM after 45 mins by fluorescence quenching analysis relative to control
[32] = Binding affinity to 5'-CCGGGCGC-3' DNA hairpin assessed as change in fluorescence intensity at 1 uM after 45 mins by fluorescence quenching analysis relative to control
[33] = Binding affinity to 5'-GGGCGCGC-3' DNA hairpin assessed as change in fluorescence intensity at 1 uM after 45 mins by fluorescence quenching analysis relative to control
[34] = Binding affinity to 5'-GCGGGCGC-3' DNA hairpin assessed as change in fluorescence intensity at 1 uM after 45 mins by fluorescence quenching analysis relative to control
[35] = Binding affinity to 5'-GCCCGCCC-3' DNA hairpin assessed as change in fluorescence intensity at 1 uM after 45 mins by fluorescence quenching analysis relative to control
[36] = Binding affinity to 5'-CCCCGCGC-3' DNA hairpin assessed as change in fluorescence intensity at 1 uM after 45 mins by fluorescence quenching analysis relative to control

## NCC1O[C@H](O[C@H]2[C@@H](O)[C@H](O[C@@H]3[C@@H](O)[C@H](N)C[C@H](N)[C@H]3O[C@H]3O[C@H](CN)[C@@H](O)[C@H](O)[C@H]3N)O[C@@H]2CSCCNC(=O)CCSCC(=O)Nc2ccc(-c3c4ccc(=O)cc-4oc4cc(O)ccc34)c(C(=O)O)c2)[C@H](N)[C@@H](O)[C@@H]1O (stereo partly specified)
[1]
  Activity: 44.5%
[2]
  Activity: 31.8%
[3]
  Activity: 37.8%
[4]
  Activity: 57.7%
[5]
  Activity: 39.6%
[6]
  Activity: 41.1%
[7]
  Activity: 46.3%
[8]
  Activity: 49.1%
[9]
  Activity: 38.1%
[10]
  Activity: 34.3%
[11]
  Activity: 47.9%
[12]
  Activity: 40.9%
[13]
  Activity: 37.6%
[14]
  Activity: 43.4%
[15]
  Activity: 33.4%
[16]
  Activity: 49.3%
[17]
  Activity: 51.9%
[18]
  Activity: 43.7%
[19]
  Activity: 49.7%
[20]
  Activity: 43.2%
[21]
  Activity: 45.2%
[22]
  Activity: 51.8%
[23]
  Activity: 52.6%
[24]
  Activity: 48.3%
[25]
  Activity: 52.4%
[26]
  Activity: 19.8%
[27]
  Activity: 30.9%
[28]
  Activity: 38.4%
[29]
  Activity: 52.5%
[30]
  Activity: 47.2%
[31]
  Activity: 47.7%
[32]
  Activity: 43.6%
[33]
  Activity: 58.3%
[34]
  Activity: 53.7%
[35]
  Activity: 47.8%
[36]
  Activity: 41.4%
